# According to patent US8354374B2, “Peptides having pharmacological activity for treating disorders associated with altered cell migration, such as cancer” (Pharmaphelix S.R.L., priority 2006, dated 2013):
# Square brackets hold non-standard residues; d marks the D form. Peptide text beside a SMILES is read from it. ξ: configuration not given here. ξαMeF = CC(N)(Cc1ccccc1)C(=O)O; Aib = CC(C)(N)C(=O)O
# Assays:
# [1] = system: human fibrosarcoma HT1080 cells; assay: Directional migration towards 10% FBS in Boyden chamber; type: cell-based
# Experimental: The effect of PICM57 described in example 3 on the cell migration of human fibrosarcoma HT1080 cells was tested. A Boyden chamber equipped with polycarbonate filters, having pores with a diameter of 8 μm (Nucleopore), free of polyvinylpyrrolidone and coated with 5 μg/ml of vitronectin (Promega), was used, as reported in the literature (Carriero et al., Cancer Res. 59, 5307, 1999). 3×10^4 cells, in serum-free DMEM (Dulbecco Modified Eagle Medium), were deposited in the upper compartment of the Boyden chamber. The lower chamber was packed with DMEM containing 10% FBS (Foetal Bovine Serum) as a source of chemotactics, in the presence of increasing concentrations of PICM57. The cells were incubated for 4 h at 37° C. in humidified air containing 5% CO2. After incubation, the cells adhering to the upper surface of the filter were mechanically removed, and the migrated cells adhering to the lower surface of the filter were fixed in ethanol, stained with haematoxylin, and counted at 200× in 10 fields/filter chosen at random. The directional migration in response to FBS in the absence of PICM57 was taken as 100% and the effect of PICM57 on cell migration was evaluated in percentage terms. The data represent the average of three independent experiments conducted in duplicate. The antagonistic effect of PICM57 on migration of HT1080 cells towards FBS is dose-dependent (Table 2). It begins at concentrations of 1 aM, reaches 50% of its maximum value at concentrations of 1 fM, and reaches the maximum effect at concentrations of 10 fM (66% of inhibition).
# The mobility induced by FBS in the presence of Metastin[45-54] was evaluated under the same experimental conditions (Table 3). […]
# [2] = system: Cell lines of human or murine origin, derived from various tissues; assay: Directional migration towards 10% FBS, all the cell lines tested; type: cell-based; conditions: 100 pM PICM1
# Experimental: Cell lines of human or murine origin, derived from various tissues, were subjected to in vitro directional migration tests employing Boyden chambers as described in example 4, and using 10% FBS as chemotactic source, in the presence/absence of 100 pM PICM1. Directional migration in response to FBS in the absence of PICM1 was taken as 100%, and the effect of PICM1 on cell migration was evaluated as a percentage of said value. The data represent the average of two independent experiments conducted in duplicate. In all the cell lines tested, an inhibiting effect of PICM1 on cell migration was observed (Table 4). Although the extent of the inhibition differs between the cell lines used, it was never less than 50%, and was also observed in murine melanoma B16 cells, which are unresponsive to Metastin (Ohtaki, T., et al. (2001) Nature 411, 613-617).
# [3] = system: human fibrosarcoma HT1080 cells; assay: In vitro cell invasion through matrigel towards 10% FBS (Boyden chamber); type: cell-based
# Experimental: The in vitro cell invasion tests were conducted with Boyden chambers, using polyvinylpyrrolidone free filters, having pores with a diameter of 8 μm (Nucleopore), coated with 70 μg/filter of matrigel and DMEM containing 10% FBS as chemoattractant (Silvestri et al. Int. J. Cancer 102, 562-571, 2002). Human fibrosarcoma HT1080 cells (2×10^5 cells/sample) were deposited in the upper compartment of the chamber in a serum-free culture medium. The lower compartment of the chamber contained DMEM with the addition of 10% FBS as chemotactic source, and the peptides to be assayed, tested at the concentration indicated. The chambers, thus assembled, were placed at 37° C. in a humidified environment containing 5% CO2. After 18 hrs, the cells which had crossed the matrigel and adhered to the lower surface of the filters were fixed, stained and counted. The data represent the average of two independent experiments conducted in duplicate. The results, set out in Table 8, are expressed as the percentage of cells that invade the matrigel in the presence of FBS, but in the absence of peptide (100%). The inhibiting effect of PICM1 and PICM57 on the invasiveness of HT1080 cells is dose-dependent.
# [4] = system: HUVEC cells (Human Umbilical Vein Endothelial Cells); assay: In vitro neo-angiogenesis: VEGF-dependent tubule formation on matrigel; type: cell-based
# Experimental: The in vitro neo-angiogenesis tests were conducted by exploiting the ability of endothelial cells to form, in the presence of pro-angiogenic factors, cords which extend to form a network of microtubules on a layer of polymerised matrigel. For this type of assay, 5×10^4 HUVEC cells (Human Umbilical Vein Endothelial Cells) per well were plated in 24-well plates, in which 300 μl of matrigel was left to polymerise in the presence of 40 ng/ml of VEGF (Vascular Endothelial Growth Factor), used as pro-angiogenic agent, and the peptides indicated, at different concentrations. Tubule formation was evaluated after 18 hours' incubation at 37° C. in 5% CO2, by counting the number of tubular structures in at least 5 fields, chosen at random, with an inverted microscope. The effect of the peptides on VEGF-dependent tubule-forming activity is calculated as a percentage of the number of tubular structures counted in the presence of VEGF (taken as 100%). The data (Table 9) represent the average of two experiments conducted in duplicate. The antagonistic effect of PICM1 and PICM57 on neo-angiogenesis in vitro is dose-dependent. This effect begins at concentrations of aM and reaches the peak action at a concentration of pM (20% of the number of tubular structures counted); 50% of the maximum effect is reached at concentrations of fM. The anti-angiogenic effect exerted by 50 nM of endostatin and the low inhibitory effect exerted by metastin[45-54] are shown by way of comparison.
# [5] = system: human fibrosarcoma HT1080 cells in CD1 nude mice; assay: Anti-metastatic effect in vivo: pulmonary metastasis of HT1080 cells injected into the caudal vein; conditions: 3 mg/Kg every 48 h
# Experimental: The anti-metastatic power of PICM1 was evaluated on an animal model. 2×10^6 human fibrosarcoma HT1080 cells, which cause pulmonary metastasis in the experimental model (Schweinitz A, et al., J. Biol. Chem. 279:33613, 2004), were suspended in saline solution and injected into the caudal vein of twenty 7-week-old CD1 nude mice. 24 hours after the inoculation of the tumour cells, groups of 10 animals were treated with a slow injection of 3 mg/Kg of PICM1, dissolved in 100 μl of saline solution, every 48 h, with the animal immobilised. The 10 control animals received the same injection treatment, but with the saline solution only. Each animal was weighed and inspected for dyspnoea every day. […] All the treated and control animals were sacrificed, and an autopsy was conducted. The lungs, liver, kidneys, spleen and heart were subjected to macroscopic and microscopic analysis.
# mouse = conditions: acute
# rat = conditions: acute
# in vivo [6] = conditions: mouse
# in vivo [7] = conditions: rat
# [8] = system: murine melanoma B16 cells; conditions: Ohtaki et al. 2001; cited from earlier work
# FPR = biological target: T1, FPR (Homo sapiens, UniProt P21462); conditions: cells pre-incubated with 10 μM peptide
# T1 sequence (P21462 1-350): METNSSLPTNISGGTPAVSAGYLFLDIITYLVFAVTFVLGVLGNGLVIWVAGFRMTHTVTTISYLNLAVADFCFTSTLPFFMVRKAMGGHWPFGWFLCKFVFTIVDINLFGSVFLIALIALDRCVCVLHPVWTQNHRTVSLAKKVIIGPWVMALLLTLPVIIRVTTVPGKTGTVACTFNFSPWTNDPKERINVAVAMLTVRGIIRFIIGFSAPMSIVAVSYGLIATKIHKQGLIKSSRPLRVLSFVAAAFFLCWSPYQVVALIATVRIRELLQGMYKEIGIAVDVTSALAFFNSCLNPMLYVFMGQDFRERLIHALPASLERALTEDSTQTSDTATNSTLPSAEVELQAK
# [9] = 10 pM peptide, 10% FBS alone = 100%
# [10] = 10 nM peptide, 10% FBS alone = 100%
# [11] = 1 aM peptide, migration toward 10% FBS alone = 100%
# [12] = 10 aM peptide, 10% FBS alone = 100%
# [13] = 10 fM peptide, 10% FBS alone = 100%
# [14] = injection, sacrifice after 22 days
compound,measurement,setting,value
"CC(=O)N[C@@H](CCCNC(=N)N)C(=O)N[C@@H](CCC(=O)O)C(=O)N[C@@H](CCCNC(=N)N)C(=O)N[C@@H](Cc1ccccc1)C(N)=O [PICM1, Ac-Arg-Glu-Arg-Phe-NH2] (Ac-RERF-NH2)",Cell Migration towards 10% FBS (%),[1]; [9],46%
same,Cell Migration towards 10% FBS (%),"[1]; 100 pM peptide, 10% FBS alone = 100%",34%
same,Cell Migration towards 10% FBS (%),[1]; [10],35%
same,Cell Migration towards 10% FBS (%),[1]; [11],99%
same,Cell Migration towards 10% FBS (%),[1]; [12],70%
same,Cell Migration towards 10% FBS (%),[1]; [13],56%
same,extent of the inhibition of cell migration,[2],≥ 50%
same,Cell invasion towards 10% FBS (%),[3]; 10 pM peptide,55%
same,Cell invasion towards 10% FBS (%),[3]; 10 nM peptide,44%
same,Cell invasion towards 10% FBS (%),"[3]; 1 aM peptide, FBS without peptide = 100%",100%
same,Cell invasion towards 10% FBS (%),[3]; 10 aM peptide,101%
same,Cell invasion towards 10% FBS (%),[3]; 10 fM peptide,62%
same,concentration at which 50% of the maximum effect on neo-angiogenesis is reached,[4],fM
same,VEGF-dependent tubule-forming activity (%),[4]; 10 pM peptide,30%
same,VEGF-dependent tubule-forming activity (%),[4]; 10 nM peptide,22%
same,VEGF-dependent tubule-forming activity (%),"[4]; 1 aM peptide, 40 ng/ml VEGF = 100%",104%
same,VEGF-dependent tubule-forming activity (%),[4]; 10 aM peptide,77%
same,VEGF-dependent tubule-forming activity (%),[4]; 10 fM peptide,65%
same,tubular structures at peak action (% of VEGF-only control),[4]; peak action at a concentration of pM,20%
same,extensive sub-pleural neoformations on macroscopic analysis of the lungs,[5]; [14],not observed in the treated animals
same,pulmonary metastasis on microscopic observation,[5]; [14],did not exhibit the presence of metastasis
same,"histo-morphological alterations of lungs, liver, kidneys, spleen and heart",[5]; autopsy,"None of the organs examined, of the controlled or treated animals, presented any histo-morphological alterations, with the exception of the lungs"
"CC(=O)N[C@@H](CCCNC(=N)N)C(=O)NC(C)(C)C(=O)N[C@@H](CCCNC(=N)N)C(=O)NC(C)(Cc1ccccc1)C(N)=O (stereo partly drawn) [PICM57, Ac-Arg-Aib-Arg-α(Me)Phe-NH2] (Ac-R[Aib]R[ξαMeF]-NH2)",dose with all animals alive,mouse,28 mg/kg
same,dose with all animals dead,mouse,32 mg/kg
same,dose with all animals alive,rat,58 mg/kg
same,dose with all animals dead,rat,70 mg/kg
same,LD50,in vivo [6],30 mg/kg
same,LD50,in vivo [7],65 mg/kg
Endostatin [reference compound],VEGF-dependent tubule-forming activity (%),[4]; 10 nM peptide,30%
Metastin,responsiveness of B16 cells,[8],unresponsive
Metastin[45-54] [reference compound],Cell Migration towards 10% FBS (%),[1]; [9],53%
same,"concentration needed for comparable inhibition of migration, times greater than PICM57",[1]; 10 nM Metastin[45-54] vs. 10 fM PICM57,"1,000 times"
same,Cell Migration towards 10% FBS (%),[1]; [10],56%
same,Cell Migration towards 10% FBS (%),[1]; [11],100%
same,Cell Migration towards 10% FBS (%),[1]; [12],83%
same,Cell Migration towards 10% FBS (%),[1]; [13],73%
same,VEGF-dependent tubule-forming activity (%),[4]; 10 pM peptide,63%
same,VEGF-dependent tubule-forming activity (%),[4]; 10 nM peptide,65%
same,VEGF-dependent tubule-forming activity (%),[4]; 10 fM peptide,90%
same,reduction of binding of fluorescinated formyl-Nle-Leu-Phe-Nle-Tyr-Lys to the cell surface,FPR,does not modify
